# Results from patent US20130053357A1, “SKIN IRRITATION SUPPRESSANT AND TRANSDERMAL PREPARATION” (HISAMITSU PHARMACEUTICAL CO., INC., priority 2010, published 2013).
# Structures can show the parent of a compound that is named as a salt. Where two headings read alike, the source gives them in different places.
# Columns and labels:
# [1] = tested on: human three-dimensional culture epidermal model (LabCyte EPI-MODEL); experiment: Suppression by cholesterol of skin irritation mediator production induced by drugs in a human epidermal cell (Experiment 2); assay type: cell-based
# Description: (§1) A human three-dimensional epidermal culture model obtained by multilayer-culturing a human normal epidermal cell (LabCyte EPI-MODEL, manufactured by Japan Tissue Engineering Co., Ltd.) was used. LabCyte is a cultured skin cultured in a transwell. For the experiment, LabCyte was used with the transwell.
# (§2) The experiment was conducted as below. First, LabCyte was put into a 24-well assay plate. Then, 1 ml of assay medium (Japan Tissue Engineering Co., Ltd.) was added so that it was brought into contact with a bottom surface of the cultured skin in each well of the 24-well assay plate, and was pre-cultured in an incubator with 5% of carbon dioxide concentration at 37° C. for 1 hour.
# (§3) The test solutions of each group were added to the cells, the culture solutions incubated for 48 hours were collected, and a production amount of each skin irritation mediator was measured. The skin irritation mediator was measured by using a commercially available ELISA kit (manufactured by R&D Systems, Inc.). A relative production amount of the skin irritation mediator in each test substance was calculated as below, when the production amount of the skin irritation mediator in the PMA Only Group was set to 100.
# Cholesterol was used as a test substance. The drugs shown in Table 2 were used as the cutaneous irritants.
# Tests were conducted by the following group composition. • Drug Only Group: A group with addition of only the drug dispersed in a vehicle, as a test solution. Concentrations of the drugs are shown in Table 2. • Drug Plus Cholesterol Group: A group with addition of the drug and 1% by mass of cholesterol which were dispersed in a vehicle, as a test solution.
# The experiment was conducted while other conditions were set in the same manner as in Experiment 1.
# [2] = tested on: human three-dimensional culture epidermal model (LabCyte EPI-MODEL); experiment: Production of skin irritation mediators induced by PMA in human three-dimensional epidermal culture model (Experiment 1); assay type: cell-based; conditions: for activity at 1 %: Homo sapiens, 48 h; for Relative Production Amount of Skin Irritation Mediator when Production Amount in PMA Only Group is Set to 100: IL-1α / Relative Production Amount of Skin Irritation Mediator when Production Amount in PMA Only Group is Set to 100: IL-6 / Relative Production Amount of Skin Irritation Mediator when Production Amount in PMA Only Group is Set to 100: IL-8 / Relative Production Amount of Skin Irritation Mediator when Production Amount in PMA Only Group is Set to 100: PGE2: 48 hours
# Source text: Changes in production amounts of skin irritation mediators by test substances were examined when cutaneous irritants were caused to act on a human three-dimensional culture epidermal model.
# as §1
# As test substances, there were used cholesterol (manufactured by Wako Pure Chemical Industries, Ltd.), β-sitosterol (manufactured by TAMA BIOCHEMICAL CO., LTD.), α-spinasterol (manufactured by ChromaDex, Inc.), ergosterol (manufactured by Wako Pure Chemical Industries, Ltd.), campesterol (manufactured by TAMA BIOCHEMICAL CO., LTD.), glycyrrhizin (manufactured by Wako Pure Chemical Industries, Ltd.), glycyrrhetinic acid (manufactured by Wako Pure Chemical Industries, Ltd.), ginsenoside (manufactured by Wako Pure Chemical Industries, Ltd.), squalene (manufactured by Wako Pure Chemical Industries, Ltd.), squalane (manufactured by Tokyo Chemical Industry Co., Ltd.) and lanosterol (manufactured by ChromaDex, Inc.), which are candidates of a skin irritation suppressant.
# As skin irritants, Phorbol 12-Myristate 13-Acetate (PMA, manufactured by Wako Pure Chemical Industries, Ltd.) was used. In addition, as vehicle, olive oil (manufactured by Wako Pure Chemical Industries, Ltd.) was used.
# Experiments were conducted by the following group composition. • PMA Only Group: A group with addition of only 0.00001 mol of PMA dispersed in a vehicle, as a test solution. • Test Substance Group: A group with addition of 0.00001 mol of PMA and the test substance which were dispersed in a vehicle, as a test solution.
# as §2
# Next, a cell survival rate was measured by the MTT method after causing the test solutions of each group to act. Specifically, 50 μL of the test solution of each group was added to the surface of the LabCyte after preculture, was cultured in the incubator with 5% of carbon dioxide concentration at 37° C. for 48 hours, then was transferred to the assay medium comprising 0.5 mg/ml of MTT reagent, and was cultured in the incubator with 5% of carbon oxide level at 37° C. for 3 hours. Then, LabCyte was immersed in 0.3 ml of an isopropanol solution, and the produced blue-purple formazan was extracted for 2 hours. After extraction, an absorbance at 570 nm was measured by a 96 microplate reader. The cell survival rate was calculated as below.
# Cell survival rate (%)=(absorbance of Test Substance Group)/(absorbance of PMA Only Group)×100
# Subsequently, a production amount of the skin irritation mediator at a test substance concentration with 80% or more of cell survival rate was measured. As skin irritation mediators, PGE2, IL-1α, IL-6, IL-8 were measured.
# as §3
# Relative production amount=(production amount of the mediator in Test Substance Group)/(production amount of the mediator in PMA Only Group)×100
# [3] = Drug Plus Cholesterol Group: drug 1 × 10^−3 M plus 1% by mass of cholesterol
# [4] = Drug Plus Cholesterol Group: drug 2 × 10^−3 M plus 1% by mass of cholesterol
# [5] = Drug Plus Cholesterol Group: drug 8 × 10^−5 M plus 1% by mass of cholesterol
# [6] = test substance 0.1 mass % with PMA in olive oil
# [7] = test substance 1 mass % with PMA in olive oil
compound,measurement,setting,value
CN(C)CCC[C@@]1(c2ccc(F)cc2)OCc2cc(C#N)ccc21.O=C(O)C(=O)O [(S)-citalopram Oxalate],Relative Production Amount of Skin Irritation Mediator when Production Amount in Drug Only Group is Set to 100: IL-1α,[1]; [3],61
same,Relative Production Amount of Skin Irritation Mediator when Production Amount in Drug Only Group is Set to 100: IL-6,[1]; [3],85
same,Relative Production Amount of Skin Irritation Mediator when Production Amount in Drug Only Group is Set to 100: IL-8,[1]; [3],64
same,Relative Production Amount of Skin Irritation Mediator when Production Amount in Drug Only Group is Set to 100: PGE2,[1]; [3],46
CC(C)NCC(O)COc1ccc(COCCOC(C)C)cc1 (stereo not shown) [Bisoprolol Fumarate],Relative Production Amount of Skin Irritation Mediator when Production Amount in Drug Only Group is Set to 100: IL-1α,[1]; [3],26
same,Relative Production Amount of Skin Irritation Mediator when Production Amount in Drug Only Group is Set to 100: IL-6,[1]; [3],72
same,Relative Production Amount of Skin Irritation Mediator when Production Amount in Drug Only Group is Set to 100: IL-8,[1]; [3],73
same,Relative Production Amount of Skin Irritation Mediator when Production Amount in Drug Only Group is Set to 100: PGE2,[1]; [3],87
"CC(C)[C@H](C)CC[C@@H](C)[C@H]1CC[C@H]2[C@@H]3CC=C4C[C@@H](O)CC[C@]4(C)[C@H]3CC[C@]12C [Campesterol, campesterol]",Effect on skin irritation mediator production by PMA (in words),[2],exhibited effects of suppressing the skin irritation mediator production by PMA
same,activity at 1 %,[2]; read-out: Relative Production Amount of Skin Irritation Mediator when Production Amount in PMA Only Group is Set to 100: IL-1α,53%
same,activity at 1 %,[2]; read-out: Relative Production Amount of Skin Irritation Mediator when Production Amount in PMA Only Group is Set to 100: IL-6,100%
same,activity at 1 %,[2]; read-out: Relative Production Amount of Skin Irritation Mediator when Production Amount in PMA Only Group is Set to 100: IL-8,106%
same,activity at 1 %,[2]; read-out: Relative Production Amount of Skin Irritation Mediator when Production Amount in PMA Only Group is Set to 100: PGE2,38%
CN1CCCC1c1cccnc1 (stereo not shown) [Nicotine],Relative Production Amount of Skin Irritation Mediator when Production Amount in Drug Only Group is Set to 100: IL-1α,[1]; [4],29
same,Relative Production Amount of Skin Irritation Mediator when Production Amount in Drug Only Group is Set to 100: IL-6,[1]; [4],93
same,Relative Production Amount of Skin Irritation Mediator when Production Amount in Drug Only Group is Set to 100: IL-8,[1]; [4],67
same,Relative Production Amount of Skin Irritation Mediator when Production Amount in Drug Only Group is Set to 100: PGE2,[1]; [4],58
Cc1nc2n(c(=O)c1CCN1CCC(c3noc4cc(F)ccc34)CC1)CCCC2 [Risperidone],Relative Production Amount of Skin Irritation Mediator when Production Amount in Drug Only Group is Set to 100: IL-1α,[1]; [3],14
same,Relative Production Amount of Skin Irritation Mediator when Production Amount in Drug Only Group is Set to 100: IL-6,[1]; [3],77
same,Relative Production Amount of Skin Irritation Mediator when Production Amount in Drug Only Group is Set to 100: IL-8,[1]; [3],38
same,Relative Production Amount of Skin Irritation Mediator when Production Amount in Drug Only Group is Set to 100: PGE2,[1]; [3],80
Cc1ccc(O)c([C@H](CCN(C(C)C)C(C)C)c2ccccc2)c1 [Tolterodine Tartrate],Relative Production Amount of Skin Irritation Mediator when Production Amount in Drug Only Group is Set to 100: IL-1α,[1]; [5],48
same,Relative Production Amount of Skin Irritation Mediator when Production Amount in Drug Only Group is Set to 100: IL-6,[1]; [5],92
same,Relative Production Amount of Skin Irritation Mediator when Production Amount in Drug Only Group is Set to 100: IL-8,[1]; [5],66
same,Relative Production Amount of Skin Irritation Mediator when Production Amount in Drug Only Group is Set to 100: PGE2,[1]; [5],58
CC[C@H](/C=C/[C@@H](C)[C@H]1CC[C@H]2C3=CC[C@H]4C[C@@H](O)CC[C@]4(C)[C@H]3CC[C@]12C)C(C)C [α-spinasterol],Effect on skin irritation mediator production by PMA (in words),[2]; summary of Table 1,exhibited effects of suppressing the skin irritation mediator production by PMA
same,Relative Production Amount of Skin Irritation Mediator when Production Amount in PMA Only Group is Set to 100: IL-1α,[2]; [6],38
same,Relative Production Amount of Skin Irritation Mediator when Production Amount in PMA Only Group is Set to 100: IL-6,[2]; [6],109
same,Relative Production Amount of Skin Irritation Mediator when Production Amount in PMA Only Group is Set to 100: IL-8,[2]; [6],72
same,Relative Production Amount of Skin Irritation Mediator when Production Amount in PMA Only Group is Set to 100: PGE2,[2]; [6],43
CC[C@H](CC[C@@H](C)[C@H]1CC[C@H]2[C@@H]3CC=C4C[C@@H](O)CC[C@]4(C)[C@H]3CC[C@]12C)C(C)C [β-sitosterol],Effect on skin irritation mediator production by PMA (in words),[2]; summary of Table 1,exhibited effects of suppressing the skin irritation mediator production by PMA
same,Relative Production Amount of Skin Irritation Mediator when Production Amount in PMA Only Group is Set to 100: IL-1α,[2]; [7],101
same,Relative Production Amount of Skin Irritation Mediator when Production Amount in PMA Only Group is Set to 100: IL-6,[2]; [7],100
same,Relative Production Amount of Skin Irritation Mediator when Production Amount in PMA Only Group is Set to 100: IL-8,[2]; [7],34
same,Relative Production Amount of Skin Irritation Mediator when Production Amount in PMA Only Group is Set to 100: PGE2,[2]; [7],44
ginsenoside,Effect on skin irritation mediator production by PMA (in words),[2]; summary of Table 1,exhibited effects of suppressing the skin irritation mediator production by PMA
same,Relative Production Amount of Skin Irritation Mediator when Production Amount in PMA Only Group is Set to 100: IL-1α,[2]; [6],77
same,Relative Production Amount of Skin Irritation Mediator when Production Amount in PMA Only Group is Set to 100: IL-6,[2]; [6],70
same,Relative Production Amount of Skin Irritation Mediator when Production Amount in PMA Only Group is Set to 100: IL-8,[2]; [6],90
same,Relative Production Amount of Skin Irritation Mediator when Production Amount in PMA Only Group is Set to 100: PGE2,[2]; [6],121
